In US20140349948A1, “Treatment of Chronic Constipation” (Forest Laboratories Holdings Limited, priority 2009, published 2014):
Marks after values point to notes of the source that are not given here. Residues, ends and D or L forms follow the SMILES beside them.

Key:
[1] = system: patients with chronic constipation; assay: Trial 2 four-week Randomized Withdrawal Period; type: in vivo, human; design: Straining, Change From Baseline, Mean / Abdominal Discomfort, Change From Baseline, Mean / Bloating, Change From Baseline, Mean / Constipation Severity, Change From Baseline, Mean / Global Relief of Constipation Symptoms, Change From Baseline, Mean: scale not given here; details: for Stool Consistency (BSFS), Change From Baseline, Mean / Straining, Change From Baseline, Mean / Weekly CSBM Rate, Change From Baseline, Mean / Weekly SBM Rate, Change From Baseline, Mean / Abdominal Discomfort, Change From Baseline, Mean / Bloating, Change From Baseline, Mean / Constipation Severity, Change From Baseline, Mean / Global Relief of Constipation Symptoms, Change From Baseline, Mean: RW Period
Method: (§1) Trial 2 was conducted in 642 patients and was identical to Trial 1 except that Trial 2 also included a four-week Randomized Withdrawal Period, defined below. During the two-week pretreatment (baseline) period, 68 percent of patients in Trial 2 had no CSBMs.
The Randomized Withdrawal (RW) Period is defined as the 4 weeks immediately following the Treatment Period. The beginning of the RW Period coincides with the end of the Treatment Period. Patients who were randomized to linaclotide in the Treatment Period and complete the 12 weeks of the Treatment Period were randomized to treatment with linaclotide or placebo in the RW Period. Patients who were randomized to placebo in the Treatment Period and complete the 12 weeks of the Treatment Period received 133 μg or 266 μg linaclotide in the RW Period.

[2] = system: patients with chronic constipation; assay: Trials 1 and 2 pooled; type: in vivo, human; details: for Straining, Week 1 Mean Change from Baseline / Abdominal discomfort, Week 1 Mean Change from Baseline / Bloating, Week 1 Mean Change from Baseline / Constipation severity, Week 1 Mean Change from Baseline: 5-point scale: 1 = none; for Straining, Week 1 Mean Change from Baseline: 5 = an extreme amount; for Abdominal discomfort, Week 1 Mean Change from Baseline / Bloating, Week 1 Mean Change from Baseline / Constipation severity, Week 1 Mean Change from Baseline: 5 = very severe; for Stool Consistency, Week 1 Mean Change from Baseline: 7-point scale (BSFS)
Method: Linaclotide Capsules from Example 4 were administered in multicenter, randomized, double-blind, placebo-controlled trials.
Trial 1 was conducted in 630 patients meeting modified Rome II criteria for chronic constipation. The trial included a two-week pretreatment baseline period and a 12-week treatment period. A diagram of the study design for Trial 2 is given in FIG. 1, which is substantially similar to Trial 1 except for the addition of a Randomized Withdrawal period in Trial 2 as described below.
as §1

CC = assay: Phase 2b studies for CC, four-week treatment; type: in vivo; details: throughout the four-week treatment period
Source text: (§2) Linaclotide is a peptide GC-C agonist that is orally administered and currently in clinical trials for treatment of irritable bowel syndrome with constipation (IBS-c) and CC.

[3] = Systemic linaclotide levels after oral administration; type: in vivo; details: after oral administration at therapeutic dose levels
Source text: as §2

Compound: C[C@@H]1NC(=O)[C@@H]2CCCN2C(=O)[C@H](CC(N)=O)NC(=O)[C@@H]2CSSC[C@H](N)C(=O)N[C@H]3CSSC[C@H](NC1=O)C(=O)N[C@@H]([C@@H](C)O)C(=O)NCC(=O)N[C@H](C(=O)N[C@@H](Cc1ccc(O)cc1)C(=O)O)CSSC[C@H](NC(=O)[C@H](Cc1ccc(O)cc1)NC(=O)[C@H](CCC(=O)O)NC3=O)C(=O)N2 [Linaclotide, Cys1 Cys2 Glu3 Tyr4 Cys5 Cys6 Asn7 Pro8 Ala9 Cys10 Thr11 Gly12 Cys13 Tyr14] (HELM PEPTIDE1{C.C.E.Y.C.C.N.P.A.C.T.G.C.Y}$PEPTIDE1,PEPTIDE1,1:R3-6:R3|PEPTIDE1,PEPTIDE1,2:R3-10:R3|PEPTIDE1,PEPTIDE1,5:R3-13:R3$$$V2.0)
- Stool Consistency (BSFS), Change From Baseline, Mean ([1]; 133 μg/Placebo (n = 95)): 1.0
- Straining, Change From Baseline, Mean ([1]; 133 μg/Placebo (n = 95)): −0.8
- Weekly CSBM Rate, Change From Baseline, Mean ([1]; 133 μg/Placebo (n = 95)): 1.0
- Weekly SBM Rate, Change From Baseline, Mean ([1]; 133 μg/Placebo (n = 95)): 1.2
- Abdominal Discomfort, Change From Baseline, Mean ([1]; 266 μg/266 μg (n = 90)): −0.7
- Bloating, Change From Baseline, Mean ([1]; 266 μg/266 μg (n = 90)): −0.6
- Constipation Severity, Change From Baseline, Mean ([1]; 266 μg/266 μg (n = 90)): −0.9
- Global Relief of Constipation Symptoms, Change From Baseline, Mean ([1]; 266 μg/266 μg (n = 90)): −1.3
- Stool Consistency (BSFS), Change From Baseline, Mean ([1]; 266 μg/266 μg (n = 90)): 1.6
- Straining, Change From Baseline, Mean ([1]; 266 μg/266 μg (n = 90)): −1.3
- Weekly CSBM Rate, Change From Baseline, Mean ([1]; 266 μg/266 μg (n = 90)): 2.2
- Weekly SBM Rate, Change From Baseline, Mean ([1]; 266 μg/266 μg (n = 90)): 2.5
- Abdominal Discomfort, Change From Baseline, Mean ([1]; 266 μg/Placebo (n = 86)): −0.4
- Bloating, Change From Baseline, Mean ([1]; 266 μg/Placebo (n = 86)): −0.2
- Constipation Severity, Change From Baseline, Mean ([1]; 266 μg/Placebo (n = 86)): −0.5
- Global Relief of Constipation Symptoms, Change From Baseline, Mean ([1]; 266 μg/Placebo (n = 86)): −0.8
- Stool Consistency (BSFS), Change From Baseline, Mean ([1]; 266 μg/Placebo (n = 86)): 0.8
- Straining, Change From Baseline, Mean ([1]; 266 μg/Placebo (n = 86)): −0.8
- Weekly CSBM Rate, Change From Baseline, Mean ([1]; 266 μg/Placebo (n = 86)): 0.9
- Weekly SBM Rate, Change From Baseline, Mean ([1]; 266 μg/Placebo (n = 86)): 1.3
- Abdominal Discomfort, Change From Baseline, Mean ([1]; Placebo/266 μg (n = 177)): −0.5
- Bloating, Change From Baseline, Mean ([1]; Placebo/266 μg (n = 177)): −0.5
- Constipation Severity, Change From Baseline, Mean ([1]; Placebo/266 μg (n = 177)): −1.0
- Global Relief of Constipation Symptoms, Change From Baseline, Mean ([1]; Placebo/266 μg (n = 177)): −1.3
- Stool Consistency (BSFS), Change From Baseline, Mean ([1]; Placebo/266 μg (n = 177)): 1.9
- Straining, Change From Baseline, Mean ([1]; Placebo/266 μg (n = 177)): −1.2
- Weekly CSBM Rate, Change From Baseline, Mean ([1]; Placebo/266 μg (n = 177)): 2.1
- Weekly SBM Rate, Change From Baseline, Mean ([1]; Placebo/266 μg (n = 177)): 3.7
- bowel and abdominal symptoms and global assessments in patients continuing treatment ([1]; Randomized Withdrawal Period): sustained improvements
- frequencies of adverse events following discontinuing of treatment ([1]; Randomized Withdrawal Period): no evidence of rebound of CC symptoms or increase in the frequencies of adverse events
- rebound of CC symptoms following discontinuing of treatment ([1]; Randomized Withdrawal Period): no evidence of rebound of CC symptoms
- CC symptoms in patients initiating linaclotide treatment ([1]; Randomized Withdrawal Period, placebo then linaclotide): marked improvement
- incidence of adverse events in patients initiating linaclotide treatment ([1]; Randomized Withdrawal Period, versus those receiving linaclotide during first 4 weeks of Treatment Period): similar
- CSBM and SBM rates versus baseline rates after withdrawal ([1]; linaclotide for 12 weeks, re-randomized to placebo during 4 week withdrawal period): no decreases in CSBM (FIG. 2) or SBM rates (FIG. 3) below the baseline rates
- CSBM rate, Week 1 Mean Change from Baseline ([2]; 133 μg, Pooled (n = 430)): 2.02**
- SBM rate, Week 1 Mean Change from Baseline ([2]; 133 μg, Pooled (n = 430)): 3.96***
- Straining, Week 1 Mean Change from Baseline ([2]; 133 μg, Pooled (n = 430)): −1.02***
- Abdominal discomfort, Week 1 Mean Change from Baseline ([2]; 133 μg, Pooled (n = 430)): −0.26***
- Bloating, Week 1 Mean Change from Baseline ([2]; 133 μg, Pooled (n = 430)): −0.31***
- Constipation severity, Week 1 Mean Change from Baseline ([2]; 133 μg, Pooled (n = 430)): −0.82***
- Stool Consistency, Week 1 Mean Change from Baseline ([2]; 133 μg, Pooled (n = 430)): 1.78***
- CSBM rate, Week 1 Mean Change from Baseline ([2]; 266 μg, Pooled (n = 418)): 2.42**
- SBM rate, Week 1 Mean Change from Baseline ([2]; 266 μg, Pooled (n = 418)): 4.01***
- Straining, Week 1 Mean Change from Baseline ([2]; 266 μg, Pooled (n = 418)): −1.14***
- Abdominal discomfort, Week 1 Mean Change from Baseline ([2]; 266 μg, Pooled (n = 418)): −0.26***
- Bloating, Week 1 Mean Change from Baseline ([2]; 266 μg, Pooled (n = 418)): −0.31***
- Constipation severity, Week 1 Mean Change from Baseline ([2]; 266 μg, Pooled (n = 418)): −0.85***
- Stool Consistency, Week 1 Mean Change from Baseline ([2]; 266 μg, Pooled (n = 418)): 1.87***
- Overall rates of discontinuation due to adverse events ([2]; both trial 1 and 2): 7.4%
- most common adverse events ([2]; both trial 1 and 2, linaclotide-treated patients): diarrhea, flatulence, and abdominal pain
- effect on constipation, abdominal discomfort, and bloating (CC): reduced constipation, abdominal discomfort, and bloating
- levels seen systemically [3]: no detectable levels
